Experimental data reported in US20250152592A1, “PHARMACEUTICAL COMPOSITION COMPRISING ALLOPURINOL, FEBUXOSTAT OR PHARMACEUTICALLY ACCEPTABLE SALT THEREOF FOR PREVENTION OR TREATMENT OF CHRONIC KIDNEY DISEASE IN SUBJECT HAVING HIGH SERUM URIC ACID CONCENTRATION” (Indream Healthcare Inc., priority 2022, published 2025).

System: patients with gout and a history of major cardiovascular diseases
Assay: eGFR over time by average serum uric acid concentration, analysis of clinical trial data
Type: in vivo, human
Settings: for eGFR Mean (95% CI): febuxostat group
Procedure: In order to evaluate non-inferiority of febuxostat to allopurinol related to cardiovascular risk, a clinical trial was designed and proceeded.
A multicenter, randomized, double-blind non-inferiority trial was performed. The details of the clinical trial design have been published previously. An independent data and safety monitoring committee with access to unblinded data monitored the clinical trial. The statistical analysis for the data and the safety monitoring committee was performed by an independent statistical group (WebbWrites).
The patients were regarded as having a history of major cardiovascular diseases, if they had myocardial infarction, hospitalization for unstable angina, stroke, hospitalization for transient ischemic attack, peripheral vascular disease, or diabetes mellitus symptoms. All participants provided a prior informed consent form.
The patients were randomly assigned so that they received febuxostat or allopurinol administered once a day in a double-blind manner. The randomization was stratified according to the estimated creatinine clearance at baseline (patient group having an estimated creatinine clearance ≥60 ml per minute vs patient group having an estimated creatinine clearance ≥30 and <60 ml per minute).
The dose of allopurinol was modified according to a kidney function. The patients with the estimated creatinine clearance 60 ml or more per minute i) initially received allopurinol at a dose of 300 mg once a day, and the dose was increased in 100 mg increments monthly until the patient had the serum uric acid concentration of less than 6.0 mg per deciliter or the dosage of allopurinol was 600 mg once a day. The patient having the estimated creatinine clearance of 30 ml or more and less than 60 ml per minute initially received 200 mg of allopurinol, and then the dose was increased in 100 mg increments until the patient either had the serum uric acid concentration of less than 6.0 mg per deciliter or was receiving the allopurinol dose of 400 mg once daily.
The dose of febuxostat was not modified according to the kidney function. The patients who were randomly assigned to receive febuxostat initially received 40 mg once a daily, and continued to receive the same dosage if the serum uric acid concentration was less than 6.0 mg per deciliter after 2 weeks of the treatment. If the serum uric acid concentration was higher than 6.0 mg per deciliter at 2nd week visit, the dose of febuxostat was increased to 80 mg once daily for the remainder of the trial.
During the period, the administration of a double-blind and double-dummy trial medications was guided by an interactive voice-response system which was a procedure to prevent unblinding for the patients whose dose was not adjusted. After completing dose adjustment, the urate level was concealed from the investigators, and the treatment was managed throughout the trial using the interactive voice-response system.
Outpatient visits were conducted according to the following schedule: during screening and randomization, and at 2, 4, 6, 8, 10, 12, and 24 weeks after the randomization, and every 6 months during the subsequent years of the trial. The patients with reduced kidney function or, the patients aged 65 years or older at randomization were visited at 9 and 15 months for monitoring the serum chemical profile. If the patient agreed to be monitored, but would not return for study visit, telephone contact was made, but such method was not preferred or recommended.
In order to confirm the effect of allopurinol and febuxostat on the kidney disease, the data obtained in the clinical trial described above was analyzed.

Compound: Cc1nc(-c2ccc(OCC(C)C)c(C#N)c2)sc1C(=O)O [febuxostat]
- prevention or treatment of chronic kidney disease when serum uric acid maintained below 6 (blood glucose ≥126 mg/dl, DBP ≤80 mmHg, SBP ≤130 mmHg, serum uric acid ≥8 mg/dl, or gout history 10 years or more): effectively prevented or treated
- eGFR Mean (95% CI) (Baseline UA≥ 8, Average UA <6, Baseline): 61.87 (60.73-63.01) ml/min/1.73 m^2
- eGFR Mean (95% CI) (Baseline UA≥ 8, Average UA <6, Month 3): 62.09 (60.91-63.28) ml/min/1.73 m^2
- eGFR Mean (95% CI) (Baseline UA≥ 8, Average UA <6, Month 18): 62.99 (61.62-64.36) ml/min/1.73 m^2
- eGFR Mean (95% CI) (Baseline UA≥ 8, Average UA <6, Month 24): 63.15 (61.69-64.61) ml/min/1.73 m^2
- eGFR Mean (95% CI) (Baseline UA≥ 8, Average UA <6, Month 30): 63.85 (62.28-65.43) ml/min/1.73 m^2
- eGFR Mean (95% CI) (Baseline UA≥ 8, Average UA <6, Month 36): 64.04 (62.38-65.70) ml/min/1.73 m^2
- eGFR Mean (95% CI) (Baseline UA≥ 8, Average UA <6, Month 42): 63.75 (61.92-65.59) ml/min/1.73 m^2
- eGFR Mean (95% CI) (Baseline UA≥ 8, Average UA <6, Month 48): 65.32 (63.28-67.37) ml/min/1.73 m^2
- eGFR Mean (95% CI) (Baseline UA≥ 8, Average UA <6, Month 54): 66.35 (64.11-68.58) ml/min/1.73 m^2
- eGFR Mean (95% CI) (Baseline UA≥ 8, Average UA <6, Month 60): 66.48 (63.94-69.02) ml/min/1.73 m^2
- eGFR Mean (95% CI) (Baseline UA≥ 8, Average UA <6, Week 2): 62.03 (60.84-63.22) ml/min/1.73 m^2
- eGFR Mean (95% CI) (Baseline UA≥ 8, Average UA ≥6, Baseline): 63.17 (61.34-65.00) ml/min/1.73 m^2
- eGFR Mean (95% CI) (Baseline UA≥ 8, Average UA ≥6, Month 3): 63.02 (61.13-64.91) ml/min/1.73 m^2
- eGFR Mean (95% CI) (Baseline UA≥ 8, Average UA ≥6, Month 18): 61.52 (59.25-63.79) ml/min/1.73 m^2
- eGFR Mean (95% CI) (Baseline UA≥ 8, Average UA ≥6, Month 24): 62.08 (59.58-64.57) ml/min/1.73 m^2
- eGFR Mean (95% CI) (Baseline UA≥ 8, Average UA ≥6, Month 30): 60.68 (57.82-63.54) ml/min/1.73 m^2
- eGFR Mean (95% CI) (Baseline UA≥ 8, Average UA ≥6, Month 36): 61.32 (58.15-64.49) ml/min/1.73 m^2
- eGFR Mean (95% CI) (Baseline UA≥ 8, Average UA ≥6, Month 42): 60.90 (57.46-64.34) ml/min/1.73 m^2
- eGFR Mean (95% CI) (Baseline UA≥ 8, Average UA ≥6, Month 48): 61.54 (57.81-65.27) ml/min/1.73 m^2
- eGFR Mean (95% CI) (Baseline UA≥ 8, Average UA ≥6, Month 54): 62.30 (58.01-66.59) ml/min/1.73 m^2
- eGFR Mean (95% CI) (Baseline UA≥ 8, Average UA ≥6, Month 60): 61.06 (55.87-66.24) ml/min/1.73 m^2
- eGFR Mean (95% CI) (Baseline UA≥ 8, Average UA ≥6, Week 2): 63.18 (61.22-65.15) ml/min/1.73 m^2
- eGFR Mean (95% CI) (Baseline blood glucose level ≥126, Average UA <6, Baseline): 64.23 (62.54-65.93) ml/min/1.73 m^2
- eGFR Mean (95% CI) (Baseline blood glucose level ≥126, Average UA <6, Month 3): 63.54 (61.75-65.32) ml/min/1.73 m^2
- eGFR Mean (95% CI) (Baseline blood glucose level ≥126, Average UA <6, Month 6): 63.33 (61.52-65.14) ml/min/1.73 m^2
- eGFR Mean (95% CI) (Baseline blood glucose level ≥126, Average UA <6, Month 12): 64.32 (62.49-66.15) ml/min/1.73 m^2
- eGFR Mean (95% CI) (Baseline blood glucose level ≥126, Average UA <6, Month 18): 63.84 (61.79-65.89) ml/min/1.73 m^2
- eGFR Mean (95% CI) (Baseline blood glucose level ≥126, Average UA <6, Month 24): 64.49 (62.28-66.69) ml/min/1.73 m^2
- eGFR Mean (95% CI) (Baseline blood glucose level ≥126, Average UA <6, Month 30): 63.64 (61.38-65.91) ml/min/1.73 m^2
- eGFR Mean (95% CI) (Baseline blood glucose level ≥126, Average UA <6, Month 36): 64.30 (61.77-66.83) ml/min/1.73 m^2
- eGFR Mean (95% CI) (Baseline blood glucose level ≥126, Average UA <6, Month 42): 63.94 (61.12-66.76) ml/min/1.73 m^2
- eGFR Mean (95% CI) (Baseline blood glucose level ≥126, Average UA <6, Month 48): 65.35 (62.27-68.43) ml/min/1.73 m^2
- eGFR Mean (95% CI) (Baseline blood glucose level ≥126, Average UA <6, Month 54): 66.66 (63.21-70.10) ml/min/1.73 m^2
- eGFR Mean (95% CI) (Baseline blood glucose level ≥126, Average UA <6, Month 60): 67.78 (63.68-71.89) ml/min/1.73 m^2
- eGFR Mean (95% CI) (Baseline blood glucose level ≥126, Average UA <6, Week 2): 64.06 (62.29-65.83) ml/min/1.73 m^2
- eGFR Mean (95% CI) (Baseline blood glucose level ≥126, Average UA ≥6, Baseline): 65.94 (62.79-69.10) ml/min/1.73 m^2
- eGFR Mean (95% CI) (Baseline blood glucose level ≥126, Average UA ≥6, Month 3): 64.51 (61.21-67.81) ml/min/1.73 m^2
- eGFR Mean (95% CI) (Baseline blood glucose level ≥126, Average UA ≥6, Month 6): 64.04 (60.85-67.23) ml/min/1.73 m^2
- eGFR Mean (95% CI) (Baseline blood glucose level ≥126, Average UA ≥6, Month 12): 62.81 (59.35-66.28) ml/min/1.73 m^2
- eGFR Mean (95% CI) (Baseline blood glucose level ≥126, Average UA ≥6, Month 18): 62.28 (58.22-66.35) ml/min/1.73 m^2
- eGFR Mean (95% CI) (Baseline blood glucose level ≥126, Average UA ≥6, Month 24): 62.44 (58.21-66.68) ml/min/1.73 m^2
- eGFR Mean (95% CI) (Baseline blood glucose level ≥126, Average UA ≥6, Month 30): 61.66 (57.17-66.16) ml/min/1.73 m^2
- eGFR Mean (95% CI) (Baseline blood glucose level ≥126, Average UA ≥6, Month 36): 62.64 (57.30-67.99) ml/min/1.73 m^2
- eGFR Mean (95% CI) (Baseline blood glucose level ≥126, Average UA ≥6, Month 42): 62.33 (56.68-67.99) ml/min/1.73 m^2
- eGFR Mean (95% CI) (Baseline blood glucose level ≥126, Average UA ≥6, Month 48): 60.51 (54.59-66.44) ml/min/1.73 m^2
- eGFR Mean (95% CI) (Baseline blood glucose level ≥126, Average UA ≥6, Month 54): 60.70 (53.73-67.67) ml/min/1.73 m^2
- eGFR Mean (95% CI) (Baseline blood glucose level ≥126, Average UA ≥6, Month 60): 60.00 (50.87-69.14) ml/min/1.73 m^2
- eGFR Mean (95% CI) (Baseline blood glucose level ≥126, Average UA ≥6, Week 2): 64.56 (61.25-67.87) ml/min/1.73 m^2
- eGFR Mean (95% CI) (DBP <80, Average UA <6, Baseline): 62.24 (61.02-63.45) ml/min/1.73 m^2
- eGFR Mean (95% CI) (DBP <80, Average UA <6, Month 3): 61.85 (60.63-63.08) ml/min/1.73 m^2
- eGFR Mean (95% CI) (DBP <80, Average UA <6, Month 6): 61.84 (60.56-63.11) ml/min/1.73 m^2
- eGFR Mean (95% CI) (DBP <80, Average UA <6, Month 12): 63.06 (61.79-64.33) ml/min/1.73 m^2
